Active and inactive are the calls of the source.
Experiments:
[1] = viability loss in Vero cells – cytotoxicity control for Vif-APOBEC3G degradation inhibitor project, dose response (AID 1117358); format: functional; details: Vero
cells [2] = assay: cells
[3] = Luminescence-based cell-based high throughput dose response assay to identify activators of the DAF-12 from the parasite S. stercoralis (ssDAF-12).; format: functional
Cytochrome P450 3A4 = Cytochrome P450 3A4 (Homo sapiens, UniProt P08684);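 further: CYP3A4 tested as one member of a cytochrome P450 panel screen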
Sequence of Cytochrome P450 3A4 (P08684 whole entry, the tested form may be a part): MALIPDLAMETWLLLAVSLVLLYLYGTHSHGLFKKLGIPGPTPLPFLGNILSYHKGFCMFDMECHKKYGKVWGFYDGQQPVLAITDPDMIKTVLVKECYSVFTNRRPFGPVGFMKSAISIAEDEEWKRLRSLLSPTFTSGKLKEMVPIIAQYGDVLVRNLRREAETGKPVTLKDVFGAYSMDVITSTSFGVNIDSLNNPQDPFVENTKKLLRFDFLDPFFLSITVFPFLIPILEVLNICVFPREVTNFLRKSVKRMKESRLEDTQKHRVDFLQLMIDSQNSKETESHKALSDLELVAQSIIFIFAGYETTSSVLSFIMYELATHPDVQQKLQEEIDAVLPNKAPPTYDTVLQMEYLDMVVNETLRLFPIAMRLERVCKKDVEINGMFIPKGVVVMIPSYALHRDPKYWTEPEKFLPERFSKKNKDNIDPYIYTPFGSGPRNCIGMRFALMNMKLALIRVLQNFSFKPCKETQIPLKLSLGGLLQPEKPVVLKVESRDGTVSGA

[4] = target: T1, Oxysterols receptor LXR-beta (Homo sapiens, UniProt P55055); assay: LXR agonists, Gal4 luciferase reporter, dose response, counter-screen for ssDAF-12 agonist project, cell-based, luminescence, HEK293, S. stercoralis campaign (AID 720737); format: functional; details: read-out: IC50 (the source's name)
T1 sequence (P55055 whole entry): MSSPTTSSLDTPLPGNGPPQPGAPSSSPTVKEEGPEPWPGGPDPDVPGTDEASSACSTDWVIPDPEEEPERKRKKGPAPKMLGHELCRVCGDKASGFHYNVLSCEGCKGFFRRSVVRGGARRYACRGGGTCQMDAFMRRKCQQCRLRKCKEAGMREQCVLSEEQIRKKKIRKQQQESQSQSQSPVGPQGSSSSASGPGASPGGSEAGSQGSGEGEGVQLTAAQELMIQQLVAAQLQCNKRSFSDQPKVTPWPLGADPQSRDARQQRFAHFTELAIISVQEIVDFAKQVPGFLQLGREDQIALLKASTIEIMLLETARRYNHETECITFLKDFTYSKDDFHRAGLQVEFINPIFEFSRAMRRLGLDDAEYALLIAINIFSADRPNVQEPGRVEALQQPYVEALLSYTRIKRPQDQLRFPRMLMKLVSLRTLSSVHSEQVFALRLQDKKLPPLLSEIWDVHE

[5] = target: T1, Oxysterols receptor LXR-beta; format: functional, cell-based
Cytochrome P450 2D6 = Cytochrome P450 2D6 (Homo sapiens, UniProt P10635);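 further: CYP2D6 member of a cytochrome P450 panel assay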
Sequence of Cytochrome P450 2D6 (P10635 whole entry): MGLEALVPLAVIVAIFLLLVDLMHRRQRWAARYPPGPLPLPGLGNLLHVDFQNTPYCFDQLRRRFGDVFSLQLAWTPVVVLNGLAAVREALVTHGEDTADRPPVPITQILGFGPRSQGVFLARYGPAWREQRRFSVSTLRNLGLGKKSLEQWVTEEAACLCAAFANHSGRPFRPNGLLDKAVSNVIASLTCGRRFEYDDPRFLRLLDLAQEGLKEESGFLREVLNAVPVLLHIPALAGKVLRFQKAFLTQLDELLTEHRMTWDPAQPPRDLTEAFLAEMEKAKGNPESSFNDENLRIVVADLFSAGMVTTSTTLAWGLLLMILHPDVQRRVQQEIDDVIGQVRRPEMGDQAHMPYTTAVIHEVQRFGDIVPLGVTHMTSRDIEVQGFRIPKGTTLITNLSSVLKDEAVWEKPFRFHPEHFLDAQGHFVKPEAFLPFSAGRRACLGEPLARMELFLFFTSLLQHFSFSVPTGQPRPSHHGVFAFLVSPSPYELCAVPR

[6] = target: Heat shock protein HSP 90-alpha (Homo sapiens, UniProt P07900); format: functional, organism-based
cells [7] = details: HEK293
[8] = viability loss in HepG2 liver cells – cell-based, ATP luminescence, cherry-pick, set 6, cytotoxicity control, dose response (AID 1053125); format: functional
cells [9] = details: A549
[10] = Luminescence Cell-Based Dose Retest to Confirm Inhibitors of Cancer Stem Cells. [Related pubchem assays (depositor defined):AID2717, AID2721]; format: functional; details: Homo sapiens
[11] = target: Signal transducer and activator of transcription 1-alpha/beta (Homo sapiens, UniProt P42224); assay: inhibition of STAT1 reporter activity – cell-based, NIH 3T3, luciferase reporter, dose response (AID 1396); format: functional
Sequence of Signal transducer and activator of transcription 1-alpha/beta (P42224 whole entry, the tested form may be a part): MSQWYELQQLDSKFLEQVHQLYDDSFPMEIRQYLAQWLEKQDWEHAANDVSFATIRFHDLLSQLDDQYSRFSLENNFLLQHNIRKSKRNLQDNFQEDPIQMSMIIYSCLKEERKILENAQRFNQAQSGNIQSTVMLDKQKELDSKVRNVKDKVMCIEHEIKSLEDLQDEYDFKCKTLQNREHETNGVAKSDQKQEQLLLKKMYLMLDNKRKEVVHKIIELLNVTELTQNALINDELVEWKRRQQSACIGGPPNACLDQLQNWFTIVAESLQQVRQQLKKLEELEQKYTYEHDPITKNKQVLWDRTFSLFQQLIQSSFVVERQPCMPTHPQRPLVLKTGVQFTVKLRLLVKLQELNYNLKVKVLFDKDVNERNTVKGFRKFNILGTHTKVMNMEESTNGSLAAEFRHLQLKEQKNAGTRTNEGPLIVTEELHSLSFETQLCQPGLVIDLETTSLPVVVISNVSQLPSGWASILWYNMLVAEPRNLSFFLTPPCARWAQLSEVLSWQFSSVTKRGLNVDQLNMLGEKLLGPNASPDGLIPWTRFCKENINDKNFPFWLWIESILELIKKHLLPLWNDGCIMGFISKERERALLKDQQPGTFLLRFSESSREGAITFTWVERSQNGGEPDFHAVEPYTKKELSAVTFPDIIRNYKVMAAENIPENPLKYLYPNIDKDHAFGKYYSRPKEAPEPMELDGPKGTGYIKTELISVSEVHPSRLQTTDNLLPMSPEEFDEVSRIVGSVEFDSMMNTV

[12] = target: T2, RNA-binding protein pos-1 (Caenorhabditis elegans, UniProt G5EF15); assay: disruptors of C. elegans POS-1 RNA interaction – biochemical, fluorescence polarization, dose response (AID 1964);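 further: purified POS-1 fused to maltose binding protein made in E. coli; potency of compounds blocking POS-1 binding to fluorescent RNA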
T2 sequence (G5EF15 whole entry): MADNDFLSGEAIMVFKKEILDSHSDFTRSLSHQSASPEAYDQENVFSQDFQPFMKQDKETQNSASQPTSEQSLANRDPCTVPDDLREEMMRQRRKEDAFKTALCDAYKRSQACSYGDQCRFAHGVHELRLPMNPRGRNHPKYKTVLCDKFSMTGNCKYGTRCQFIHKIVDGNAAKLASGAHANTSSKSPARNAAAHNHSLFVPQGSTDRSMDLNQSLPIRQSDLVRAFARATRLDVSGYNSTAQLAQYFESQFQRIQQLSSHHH

Transthyretin = Transthyretin (Homo sapiens, UniProt P02766); assay: Luminescence-based cell-based high throughput dose response assay to identify activators of Transthyretin (TTR) transcription.; format: functional
[13] = Luminescence Cell-Based Dose Response HTS to Identify Activators of Luciferase Translation or Activity in H4 […] Cells. [Related pubchem assays: 1829 (Project Summary), 1814 (Primary HTS)]; format: functional
[14] = Luminescence Cell-Based Dose Confirmation HTS to Identify Activators of 5'UTR Stem-Loop Driven Alpha-Synuclein mRNA Translation in H4 Neuroglioblastoma Cells. [Related pubchem assays: 1829 (Project Summary), 1814 (Primary HTS)]; format: functional
H4 = assay: Luminescence Cell-Based Dose Response HTS to Identify Activators of 5'UTR Stem-Loop Driven Prion Protein mRNA Translation in H4 Neuroglioblastoma Cells. [Related pubchem assays: 1829 (Project Summary), 1814 (Primary HTS)]; format: functional; details: Homo sapiens
[15] = target: T3, Zinc finger protein mex-5 (Caenorhabditis elegans, UniProt Q9XUB2); assay: potency of MEX-5 RNA-binding blockers – biochemical, C. elegans, fluorescence polarization, dose response (AID 1960)
T3 sequence (Q9XUB2 whole entry): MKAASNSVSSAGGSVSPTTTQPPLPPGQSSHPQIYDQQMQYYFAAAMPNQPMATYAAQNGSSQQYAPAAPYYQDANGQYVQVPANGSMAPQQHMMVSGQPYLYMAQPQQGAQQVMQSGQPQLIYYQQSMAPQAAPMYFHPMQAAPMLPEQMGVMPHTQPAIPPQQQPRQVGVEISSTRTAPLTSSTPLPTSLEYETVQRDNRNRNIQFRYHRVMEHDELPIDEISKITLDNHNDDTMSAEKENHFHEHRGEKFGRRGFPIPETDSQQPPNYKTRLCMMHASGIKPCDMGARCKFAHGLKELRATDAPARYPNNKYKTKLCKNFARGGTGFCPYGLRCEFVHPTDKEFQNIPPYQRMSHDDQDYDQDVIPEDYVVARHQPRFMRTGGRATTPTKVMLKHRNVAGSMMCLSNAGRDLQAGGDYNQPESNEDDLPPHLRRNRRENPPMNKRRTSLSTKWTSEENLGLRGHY

[16] = target: T4, Carboxy-terminal domain RNA polymerase II polypeptide A small phosphatase 1 (Homo sapiens, UniProt Q9GZU7); assay: CTDSP1 inhibitors, concentration-response, biochemical, absorbance readout, ultra-high-throughput screen actives (AID 540297); format: functional
T4 sequence (Q9GZU7 whole entry): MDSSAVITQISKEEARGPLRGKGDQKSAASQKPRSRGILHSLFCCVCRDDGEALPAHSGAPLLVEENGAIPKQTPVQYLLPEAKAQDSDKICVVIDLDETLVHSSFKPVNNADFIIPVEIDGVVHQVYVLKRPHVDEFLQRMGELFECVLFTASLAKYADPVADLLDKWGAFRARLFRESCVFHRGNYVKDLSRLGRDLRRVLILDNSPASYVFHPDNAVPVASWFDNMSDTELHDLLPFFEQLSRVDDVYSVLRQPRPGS

[17] = target: RNA-editing ligase 1, mitochondrial (Trypanosoma brucei brucei, UniProt P86926); assay: inhibition of trypanosome RNA editing ligase – biochemical, fluorescence, Trypanosoma brucei, dose response (AID 1117295); format: functional
Sequence of RNA-editing ligase 1, mitochondrial (P86926 whole entry): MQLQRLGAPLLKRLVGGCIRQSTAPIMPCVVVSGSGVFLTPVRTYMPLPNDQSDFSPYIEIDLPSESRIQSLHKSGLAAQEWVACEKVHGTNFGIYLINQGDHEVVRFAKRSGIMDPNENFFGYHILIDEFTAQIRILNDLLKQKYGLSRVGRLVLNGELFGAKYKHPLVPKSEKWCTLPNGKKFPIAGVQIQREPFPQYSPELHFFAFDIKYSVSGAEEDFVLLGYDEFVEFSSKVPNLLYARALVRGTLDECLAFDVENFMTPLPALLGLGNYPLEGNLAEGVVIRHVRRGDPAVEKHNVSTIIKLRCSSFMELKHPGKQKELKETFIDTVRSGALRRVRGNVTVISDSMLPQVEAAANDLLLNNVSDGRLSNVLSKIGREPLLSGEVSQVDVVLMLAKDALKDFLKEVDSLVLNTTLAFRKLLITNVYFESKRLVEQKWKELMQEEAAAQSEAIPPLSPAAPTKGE

Caspase-6 = target: T5, Caspase-6 (Homo sapiens, UniProt P55212); assay: inhibition of CASP6 peptide cleavage – biochemical, VEID-R110 fluorescence, cherry-pick, dose response (AID 720632)
T5 sequence (P55212 whole entry): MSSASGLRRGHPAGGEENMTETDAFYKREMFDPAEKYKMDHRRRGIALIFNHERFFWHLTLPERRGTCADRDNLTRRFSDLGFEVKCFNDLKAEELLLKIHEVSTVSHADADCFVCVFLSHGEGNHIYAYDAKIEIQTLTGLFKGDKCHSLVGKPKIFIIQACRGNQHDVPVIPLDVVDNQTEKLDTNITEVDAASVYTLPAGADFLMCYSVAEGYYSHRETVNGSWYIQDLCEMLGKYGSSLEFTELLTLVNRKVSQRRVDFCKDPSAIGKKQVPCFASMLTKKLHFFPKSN

Q: With `Cc1onc(-c2ccccc2Cl)c1C(=O)N1CCN(c2cccc(Cl)c2)CC1` as the compound, how does the CC50 [1] read?
A: > 40 µM (active)

Q: With `Cc1ccccc1-c1cc(-c2ccccc2O)on1` as the compound, how does the EC50 (cells [2]) read?
A: > 67.6 µM (inactive)

Q: And the IC50 [3]?
A: > 67.6 µM (inactive)

Q: What about the AC50 (Cytochrome P450 3A4) of the same compound?
A: 31.6 µM (inconclusive)

Q: What about the EC50 [4] of the same compound?
A: > 67.6 µM (inactive)

Q: What about the EC50 [5] of the same compound?
A: > 67.6 µM (inactive)

Q: What about the AC50 (Cytochrome P450 2D6) of the same compound?
A: 22.4 µM (inconclusive)

Q: Which AC50 [6] does the source give for `CCCCCCc1cc2cc(S(=O)(=O)c3ccc(Cl)cc3)c(=O)oc2cc1O` here?
A: 0.476 µM (active)

Q: And the AC50 (cells [7])?
A: > 52 µM (inactive)

Q: What about the AC50 [8] of the same compound?
A: 41.4 µM (active)

Q: And the AC50 (cells [9])?
A: 35.6 µM (active)

Q: What about the AC50 [10] of the same compound?
A: 0.797 µM (active)

Q: For `O=C(c1ccco1)N1CCN(c2[nH]cnc3c4ccccc4nc2-3)CC1`, which IC50 [11] is on record?
A: 16.9 µM (not active)

Q: Which EC50 [12] does the source give for `O=C/C(=C\Nc1ccccn1)c1nc2ccccc2o1` here?
A: > 300 µM (not active)

Q: What about the EC50 (Transthyretin) of the same compound?
A: > 167 µM (inactive)

Q: And the EC50 [13]?
A: 10.2 µM (active)

Q: What about the EC50 [14] of the same compound?
A: > 120 µM (not active)

Q: What about the EC50 (H4) of the same compound?
A: 32.7 µM (active)

Q: What about the EC50 [15] of the same compound?
A: > 300 µM (not active)

Q: With `O=C(N/N=C/c1ccc(OC(=O)c2ccccc2Cl)cc1)c1cc(O)cc(O)c1` as the compound, how does the IC50 [16] read?
A: 1.4 µM (active)

Q: What about the IC50 [17] of the same compound?
A: 41 µM (inactive)

Q: What about the AC50 (Caspase-6) of the same compound?
A: 1.11 µM (active)

From ChEMBL document CHEMBL1201862, “PubChem BioAssay data set” (2004)
